Source: paper PMC11931052, “Efficacy of dispirotripiperazine PDSTP in a golden Syrian hamster model of SARS-CoV-2 infection” (Frontiers in Microbiology, 2025)
“And” between values parts separate entries of the source, which are not always exact repeats. Equal values may be shown once. “Also recorded” adds a separate entry of the source.

Tests used:
HCoV-229E = experiment: Plaque reduction assay, HCoV-229E in Vero E6 cells; assay type: cell-based
Description: Vero E6 cells were incubated in the presence of PDSTP and reference compounds (100.0, 20.0, 4.0, and 0.8 μM concentrations) for 1 h at 37°C in a 5% CO2 and then infected for 1 h with 250 μL of the corresponding virus (SARS-CoV-2 PV10734 or HCoV-229E) dilutions to obtain 50–100 PFU/well. The plates were then incubated for 1 h at 37°C in a 5% CO2 atmosphere. Following the removal of the unabsorbed virus, 400 μL of the medium (D-MEM with L-glutamine, 4,500 mg/L D-glucose, and 1% inactivated FBS) containing 0.75% methyl-cellulose (M0512, viscosity 4,000 cP, Sigma-Aldrich, United States) and the serial dilutions of the compounds were added and incubated for 4 (SARS-CoV-2) or 2 (HCoV-229E) days at 37°C in a 5% CO2 atmosphere. Subsequently, the cells were fixed and stained with a 0.2% crystal violet solution (V5265, Sigma-Aldrich, United States) and then the number of plaques was calculated. The degree of cell growth/viability and viral multiplication at each drug concentration tested was expressed as a percentage of the untreated control. Concentrations resulting in 50% inhibition (CC50 or EC50) were determined using linear regression analysis.

[1] = tested on: SARS-CoV-2 ancestral PV10734 strain; experiment: Yield reduction assay in Calu-3 cells, SARS-CoV-2 ancestral PV10734 strain; assay type: cell-based; details: PDSTP 20 and 4 μM, day 3 post-infection, p < 0.0001
SARS-COV-2 PV10734 [2] = experiment: Time-of-addition and cell pre-treatment assay in Vero cells; assay type: cell-based
SARS-COV-2 PV10734 [3] = experiment: Penetration assay in Vero cells; assay type: cell-based; details: at higher concentrations
Description: A penetration assay was performed with small modifications according to the method reported earlier ([Chang et al., 2012]). A 24-well tissue culture plate was seeded with Vero cells (3 × 10^5 cells/well), which were then incubated overnight at 37°C in a 5% CO2 atmosphere. The cells were pre-chilled on ice for 1 h, and the medium was removed. The cells were infected with 100 PFU of SARS-CoV-2 PV10734 on ice for 2 h. The medium containing the unbound virus was then removed. Various concentrations of PDSTP (100–0.8 μM) in the medium were added, and the cells were incubated at 37°C for 1 h to trigger endocytosis of the virus. The infected cells were then treated with alkaline PBS (pH 11) for 1 min to inactivate viruses that had not penetrated the cells. Acidic PBS (pH 3) was then added to neutralize the mixture. The neutralized medium was removed; the cells were overlaid with methylcellulose in media and then were incubated at 37°C. After the 72-h incubation period, the cells were stained, and the plaques were determined by counting.

[4] = tested on: SARS-CoV-2 B.1.1 GR MM1/2020/Aug-21 clinical isolate; experiment: Golden Syrian hamster model of SARS-CoV-2-induced pneumonia; assay type: in vivo; details: for Body weight: day 0
[5] = Acute toxicity, intravenous administration, rats; details: both sexes, rat, in vivo, Rats (M/F)
[6] = Acute toxicity, intravenous administration, mice; details: both sexes, mouse, in vivo, Mice (M/F)
[7] = Acute toxicity, intraperitoneal administration, mice; details: both sexes, mouse, in vivo, ip, Mice (M/F)
[8] = Acute toxicity, topical application, mice; assay type: in vivo; details: for LD50: acute toxicity, topical application
[9] = Acute toxicity, topical application, rats; assay type: in vivo; details: for LD50: acute toxicity, topical application
[10] = Chronic toxicity, intranasal administration, rabbits; assay type: in vivo; details: repeated administration for 14 days, 10-200 mg/kg
[11] = tested on: Salmonella typhimurium strains TA 97, TA 98 and TA 100; experiment: Ames test (Salmonella/microsome test); details: 0.1 to 1000 µg/ cup; MA+ and MA-
Description: PDSTP doses tested: 0.1 to 1000 µg/ cup.
Test subjects: Salmonella typhimurium strains TA 97, TA 98 and TA 100.
Metabolic activation: MA+ and MA-.

mouse bone marrow cells = experiment: Chromosomal aberrations in mouse bone marrow cells; assay type: in vivo, F1 hybrids of SWAxC57BL/6 mice; details: 400 mg/kg and 1000 mg/kg topically
Description: (§1) PDSTP doses tested: 400 mg/kg and 1000 mg/kg
(§2) Test subjects: F1 hybrids of SWAxC57BL/6 mice.
Method of administration: topically

[12] = tested on: bone marrow, liver, kidney and spleen cells; experiment: DNA damage accounting test (DNA Comet); assay type: in vivo, F1 hybrids of SWAxC57BL/6 mice; details: 400 mg/kg and 1000 mg/kg topically
Description: as §1, §2
Method of administration: topically.

[13] = Allergenicity study, delayed-type hypersensitivity, mice; assay type: in vivo; details: SWA x C57BL/6 mice
[14] = Reproductive toxicity: postnatal development of F1 generation offspring; assay type: in vivo, white laboratory rats; details: female rats received PDSTP from the 6th day of gestation to delivery
Description: PDSTP doses tested: 10% solution
Test subjects: white laboratory rats of both sexes
During the study of postnatal development and fertility of F1 generation offspring born from female rats that received PDSTP from the 6th day of gestation to delivery, the rates of physical development, the rate of maturation of sensory-motor reflexes and emotional-motor behavior, as well as fertility were evaluated in comparison with rats born from intact females.

[15] = tested on: herpes simplex epithelial keratitis; set-up: method as in Alimbarova et al., 2022; details: rabbit model; ref Alimbarova et al., 2022; cited from earlier work
[16] = 10 mg/kg, severity score 0 to 6
[17] = maximum regulated amount applied to the skin

In the case of `Cc1nc(N2CC[N+]3(CC2)CC[N+]2(CCNCC2)CC3)c([N+](=O)[O-])c(N2CC[N+]3(CC2)CC[N+]2(CCNCC2)CC3)n1.Cl.Cl.O.O.O.O.O.O.O.O.O.[Cl-].[Cl-].[Cl-].[Cl-]` [PDSTP, 3,3′-(2-methyl-5-nitropyrimidine-4,6-diyl)bis-3,12-diaza-6,9-diazonia-dispiro[5.2.5.2]hexadecane tetrachloride dihydrochloride nonahydrate], the “Antiviral activity against alphacoronavirus HCoV-229E” value (HCoV-229E) is reported as “no in vitro activity; also recorded: No antiviral activity was detected”, the IC50 (HCoV-229E; Human coronavirus 229E, Vero C1008, Vero E6, mean ± SD, read-out: Antiviral activity IC50 against coronaviruses, HCoV-229E, PR) is reported as greater than 100 µM and the “Reduction of viral titer” value [1] is reported as roughly 100 fold. The “Antiviral activity, pre-treatment and early stages of infection” value (SARS-COV-2 PV10734 [2]) was “exhibited antiviral activity”, the “Inhibitory effect at the later stages of infection” value (SARS-COV-2 PV10734 [2]) was “barely noticeable” and the “Viral inhibition, penetration experiment” value (SARS-COV-2 PV10734 [3]) was “only modest viral inhibition”. The “Animals with completely reduced SARS-CoV-2-induced lung pathology” value ([4]; 10 mg/kg) was “three”, the Body weight ([4]; 10 mg/kg) was 100,7±0,3 gram and the “Animals with lung severity score "mild"” value [4, 16] was “two”. For the same molecule, the “Animals with lung severity score "none"” value [4, 16] was “three out of six”, the “Animals with completely reduced SARS-CoV-2-induced lung pathology” value ([4]; 20 mg/kg) was “two” and the Body weight ([4]; 20 mg/kg) was 94,1±0,4 gram. The Body weight ([4]; 40 mg/kg) was 96,7±0,3 gram, the “Alveolar edema (histopathology)” value ([4]; 10 or 20 mg/kg) was “moderate” and the “Reduction in lung viral titer vs negative control” value ([4]; […], not statistically significant) was 1.5 log10. For the same molecule, the “Reduction of viral RNA copy levels in lung tissue vs vehicle” value ([4]; […], statistically non-significant) was 2.2 log10, the Core body temperature ([4]; all animal groups) was “within the normal range” and the Mortality ([4]; all animal groups) was “None of the animals died”. The Body weight loss ([4]; hamster, in vivo) was “no more than 10%”, the “Reduction of viral RNA copy levels in lung tissue vs vehicle” value ([4]; hamster, in vivo) was 1.6 log10 and 2.0 log10 and the “Viral RNA copy levels in turbinate tissue” value ([4]; hamster, in vivo) was “statistically significantly diminished”. For the same molecule, the LD50 [5] was 140 mg/kg, the LD50 [6] was 150 mg/kg and the LD50 [7] was 192 mg/kg. For the same molecule, the LD50 [8] was “greater than 31.25 mg/cm^2”, the “Toxicity and local irritant effects on skin” value [8, 17] was “No manifestations of toxicity and local irritant effects were observed” and the LD50 ([8]; mouse, in vivo, topical or ocular, 2500 mg/kg, read-out: LD50) was greater than 2500 mg/kg. For the same molecule, the LD50 [9] was “greater than 31.25 mg/cm^2”, the “Toxicity and local irritant effects on skin” value [9, 17] was “No manifestations of toxicity and local irritant effects were observed” and the LD50 ([9]; rat, in vivo, topical or ocular, 2500 mg/kg, read-out: LD50) was greater than 2500 mg/kg. The “Toxic effect on organs and systems” value [10] was “toxic effect on organs and systems was not revealed”, the “Mutagenic activity (Ames test)” value [11] was “no mutagenic activity” and the “Induction of chromosomal aberrations” value (mouse bone marrow cells) was “did not reveal the ability to induce chromosomal aberrations”. The “Induction of DNA damage (DNA Comet)” value [12] was “does not induce DNA damage”, the Delayed-type hypersensitivity [13] was “No delayed-type hypersensitivity was detected” and the “Effect on fertility of F1 generation offspring” value [14] was “No statistically significant effect”. For the same molecule, the “Effect on postnatal development of F1 generation offspring” value [14] was “does not adversely affect the studied parameters” and the “Reduction of mean progression and corneal lesions” value [15] was “comparable to traditional aciclovir”.
